Each structure is given as a SMILES string.

The source of these data is article PMC12692955, “Acetylbinankadsurin A Decreases Macrophage Glycolysis and Pro-Inflammatory Phenotype Polarization via Inhibiting HIF-1α to Alleviate Hepatic Fibrosis in Mice” (Molecules, 2025).

This experiment has as its target T1, HIF-1α (Homo sapiens, UniProt Q16665).
T1 construct: gene HIF1A; recombinant protein HIF-1α (MCE #HY-P74888)
In words: SPR (Biacore T200, HIF-1α amine-coupled to CM5 chip). The experiment is classed as binding.

T1 sequence (Q16665 whole entry): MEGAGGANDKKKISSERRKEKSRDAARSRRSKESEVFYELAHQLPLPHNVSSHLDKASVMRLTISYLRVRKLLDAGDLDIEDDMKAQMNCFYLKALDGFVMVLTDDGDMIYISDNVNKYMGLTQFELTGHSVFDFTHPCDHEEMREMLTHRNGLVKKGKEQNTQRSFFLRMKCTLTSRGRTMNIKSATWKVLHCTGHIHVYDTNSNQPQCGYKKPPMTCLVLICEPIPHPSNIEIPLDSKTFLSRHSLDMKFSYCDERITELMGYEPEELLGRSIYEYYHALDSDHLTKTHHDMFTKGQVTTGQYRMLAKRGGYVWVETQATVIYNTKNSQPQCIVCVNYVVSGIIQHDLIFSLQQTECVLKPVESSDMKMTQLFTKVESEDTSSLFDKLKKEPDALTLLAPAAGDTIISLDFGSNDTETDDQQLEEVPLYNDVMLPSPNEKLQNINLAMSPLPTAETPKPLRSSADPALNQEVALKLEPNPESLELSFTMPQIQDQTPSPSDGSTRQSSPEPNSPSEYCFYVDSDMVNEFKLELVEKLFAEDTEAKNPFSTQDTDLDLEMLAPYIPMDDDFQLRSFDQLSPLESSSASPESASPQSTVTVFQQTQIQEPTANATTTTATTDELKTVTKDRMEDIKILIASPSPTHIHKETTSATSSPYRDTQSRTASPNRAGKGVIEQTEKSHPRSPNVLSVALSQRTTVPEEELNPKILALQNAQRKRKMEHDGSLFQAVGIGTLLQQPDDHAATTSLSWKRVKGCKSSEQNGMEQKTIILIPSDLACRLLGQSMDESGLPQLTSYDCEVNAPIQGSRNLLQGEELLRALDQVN

The term Kd denotes the concentration at which binding is half-saturated. Low readings indicate higher affinity, high ones lower affinity. The compound `COc1cc2c(c(O)c1OC)-c1c(cc3c(c1OC)OCO3)[C@H](OC(C)=O)[C@H](C)[C@H](C)C2` [ACBA, Acetylbinankadsurin A] showed a dissociation constant Kd of 13 µM.
